According to ChEMBL document CHEMBL1201862, “PubChem BioAssay data set” (2004):
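Five concentrations, 48 hours, 96-well plates. GI50: concentration for 50% inhibition of growth.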 Active and inactive are the calls of the source. Rule as the data show it: active = GI50 up to about 1.1 µM and inactive = higher.

Experiments:
Experiment in all cases: DTP human tumour cell line panel, 48 h
[1] = system: HL-60
[2] = system: SNB-19
[3] = system: OVCAR-4
[4] = system: U-251
[5] = system: MCF7
[6] = system: MDA-MB-435
[7] = system: UACC-62
[8] = system: RPMI-8226
[9] = system: K562
[10] = system: RXF 393
[11] = system: SF-268
[12] = system: LOX IMVI
[13] = system: KM12
[14] = system: HOP-62
[15] = system: COLO 205
[16] = system: HCC 2998
[17] = system: MOLT-4
[18] = system: HCT-116
[19] = system: SK-MEL-5
[20] = system: NCI/ADR-RES
[21] = system: UACC-257
[22] = system: SR
[23] = system: A498
[24] = system: IGROV-1
[25] = system: PC-3
[26] = system: SK-MEL-2
[27] = system: HCT-15
[28] = system: NCI-H23
[29] = system: ACHN
[30] = system: SNB-75
[31] = system: OVCAR-8
[32] = system: SF-295
[33] = system: SK-OV-3
[34] = system: M14
[35] = system: SK-MEL-28
[36] = system: NCI-H460
[37] = system: MDA-MB-231
[38] = system: HT-29
[39] = system: SW-620
[40] = system: HOP-92
[41] = system: 786-0
[42] = system: TK-10
[43] = system: NCI-H226
[44] = system: UO-31
[45] = system: BT-549
[46] = system: T47D
[47] = system: DU-145
[48] = system: EKVX
[49] = system: CCRF-CEM
[50] = system: SF-539
[51] = system: Hs-578T
[52] = system: CAKI-1
[53] = system: A549
[54] = system: NCI-H522
[55] = system: Malme-3M
[56] = system: SN12C
[57] = system: OVCAR-5
[58] = system: OVCAR-3

In the case of O=c1[nH]c2ccc(C(F)(F)F)cc2nc1Cc1ccccc1, the GI50 [1] was 34.8 µM (inactive), the GI50 [2] was 53 µM (inactive) and the GI50 [3] was 33.4 µM (inactive). For the same molecule, the GI50 [4] was 45.7 µM (inactive), the GI50 [5] was 28.7 µM (inactive) and the GI50 [6] was 28.4 µM (inactive). The GI50 [7] was 42.9 µM (inactive), the GI50 [8] was 39.2 µM (inactive) and the GI50 [9] was 38.5 µM (inactive). The GI50 [10] was 27.2 µM (inactive), the GI50 [11] was 35.2 µM (inactive) and the GI50 [12] was 40 µM (inactive). The GI50 [13] was 31.6 µM (inactive), the GI50 [14] was 33 µM (inactive) and the GI50 [15] was 18.1 µM (inactive). For the same molecule, the GI50 [16] was 24.1 µM (inactive), the GI50 [17] was 16.2 µM (inactive) and the GI50 [18] was 37.2 µM (inactive). For the same molecule, the GI50 [19] was 24.7 µM (inactive), the GI50 [20] was 18.5 µM (inactive) and the GI50 [21] was 67.1 µM (inactive). For the same molecule, the GI50 [22] was > 100 µM (inactive), the GI50 [23] was 26.6 µM (inactive) and the GI50 [24] was 23.4 µM (inactive). For the same molecule, the GI50 [25] was 26.4 µM (inactive), the GI50 [26] was 24.7 µM (inactive) and the GI50 [27] was 36.1 µM. The GI50 [28] was 19.6 µM (inactive), the GI50 [29] was 29.1 µM (inactive) and the GI50 [30] was 45.9 µM (inactive). The GI50 [31] was 39.5 µM (inactive), the GI50 [32] was 33.5 µM (inactive) and the GI50 [33] was 44.9 µM (inactive). For the same molecule, the GI50 [34] was 29.9 µM (inactive), the GI50 [35] was 39.7 µM (inactive) and the GI50 [36] was 27.9 µM (inactive). For the same molecule, the GI50 [37] was 37.8 µM (inactive), the GI50 [38] was 25.4 µM (inactive) and the GI50 [39] was 39.4 µM (inactive). The GI50 [40] was 18.7 µM (inactive), the GI50 [41] was 35.5 µM (inactive) and the GI50 [42] was > 100 µM (inactive). For the same molecule, the GI50 [43] was 17.7 µM (inactive), the GI50 [44] was 37.3 µM (inactive) and the GI50 [45] was 34 µM (inactive). For the same molecule, the GI50 [46] was 40.5 µM (inactive), the GI50 [47] was 34.4 µM (inactive) and the GI50 [48] was 25.8 µM (inactive). For the same molecule, the GI50 [49] was 29.4 µM (inactive), the GI50 [50] was 31.3 µM (inactive) and the GI50 [51] was 22.3 µM (inactive). For the same molecule, the GI50 [52] was 49.2 µM (inactive).

For COc1cccc(NCC(=O)Nn2c(-c3ccccc3)nc3ccccc3c2=O)c1, the GI50 [1] was > 100 µM (inactive), the GI50 [2] was > 100 µM (inactive) and the GI50 [3] was > 100 µM (inactive). The GI50 [4] was > 100 µM (inactive), the GI50 [5] was 52.2 µM (inactive) and the GI50 [6] was > 100 µM (inactive). For the same molecule, the GI50 [7] was 63.4 µM (inactive), the GI50 [8] was > 100 µM (inactive) and the GI50 [9] was > 100 µM (inactive). For the same molecule, the GI50 [10] was > 100 µM (inactive), the GI50 [53] was > 100 µM (inactive) and the GI50 [11] was > 100 µM (inactive). For the same molecule, the GI50 [12] was > 100 µM (inactive), the GI50 [13] was > 100 µM (inactive) and the GI50 [14] was > 100 µM (inactive). For the same molecule, the GI50 [15] was > 100 µM (inactive), the GI50 [16] was > 100 µM (inactive) and the GI50 [17] was > 100 µM (inactive). For the same molecule, the GI50 [54] was > 100 µM (inactive), the GI50 [18] was > 100 µM (inactive) and the GI50 [19] was 57.7 µM (inactive). For the same molecule, the GI50 [20] was > 100 µM (inactive), the GI50 [21] was > 100 µM (inactive) and the GI50 [22] was > 100 µM (inactive). The GI50 [23] was 17.6 µM (inactive), the GI50 [24] was 64.4 µM (inactive) and the GI50 [55] was > 100 µM (inactive). For the same molecule, the GI50 [25] was > 100 µM (inactive), the GI50 [56] was > 100 µM (inactive) and the GI50 [27] was over 100 µM. The GI50 [28] was > 100 µM (inactive), the GI50 [29] was > 100 µM (inactive) and the GI50 [30] was > 100 µM (inactive). For the same molecule, the GI50 [31] was > 100 µM (inactive), the GI50 [32] was > 100 µM (inactive) and the GI50 [33] was > 100 µM (inactive). The GI50 [57] was > 100 µM (inactive), the GI50 [34] was > 100 µM (inactive) and the GI50 [35] was > 100 µM (inactive). For the same molecule, the GI50 [58] was > 100 µM (inactive), the GI50 [36] was > 100 µM (inactive) and the GI50 [37] was > 100 µM (inactive). The GI50 [38] was > 100 µM (inactive), the GI50 [39] was > 100 µM (inactive) and the GI50 [40] was 49.3 µM (inactive). The GI50 [41] was > 100 µM (inactive), the GI50 [42] was > 100 µM (inactive) and the GI50 [43] was > 100 µM (inactive). The GI50 [44] was > 100 µM (inactive), the GI50 [45] was > 100 µM (inactive) and the GI50 [46] was > 100 µM (inactive). The GI50 [47] was > 100 µM (inactive), the GI50 [48] was 91.6 µM (inactive) and the GI50 [49] was 82 µM (inactive). The GI50 [50] was > 100 µM (inactive) and the GI50 [51] was > 100 µM (inactive).

For CC(N/N=C(\S)N1CCN(c2ccccn2)CC1)c1nccc2ccccc12 (stereo unspecified), the GI50 [1] was < 0.01 µM (active), the GI50 [2] was 2.56 µM (inactive) and the GI50 [3] was 0.678 µM (active). The GI50 [4] was 0.385 µM (active), the GI50 [5] was 1.07 µM (active) and the GI50 [6] was 1.66 µM (inactive). The GI50 [7] was 0.305 µM (active), the GI50 [9] was < 0.01 µM (active) and the GI50 [10] was 0.908 µM (active). For the same molecule, the GI50 [53] was 1.65 µM (inactive), the GI50 [11] was 0.514 µM (active) and the GI50 [12] was 0.804 µM (active). The GI50 [13] was 3.16 µM (inactive), the GI50 [14] was 2.86 µM (inactive) and the GI50 [15] was 0.119 µM (active). For the same molecule, the GI50 [16] was 0.769 µM (active), the GI50 [17] was < 0.01 µM (active) and the GI50 [54] was 0.0782 µM (active). The GI50 [19] was 0.897 µM (active), the GI50 [20] was < 0.0216 µM (active) and the GI50 [21] was 0.0318 µM (active). The GI50 [22] was < 0.0218 µM (active), the GI50 [23] was 5.71 µM (inactive) and the GI50 [55] was 1.03 µM (active). The GI50 [25] was 0.589 µM (active), the GI50 [26] was 4.23 µM (inactive) and the GI50 [56] was 0.927 µM (active). The GI50 [27] was 0.641 µM, the GI50 [28] was 1.79 µM (inactive) and the GI50 [29] was 0.838 µM (active). The GI50 [30] was 6.43 µM (inactive), the GI50 [31] was 0.104 µM (active) and the GI50 [32] was 1.3 µM (inactive). For the same molecule, the GI50 [33] was 0.241 µM (active), the GI50 [57] was 0.453 µM (active) and the GI50 [34] was 0.045 µM (active). The GI50 [35] was 2.61 µM (inactive), the GI50 [58] was < 0.0121 µM (active) and the GI50 [36] was 0.593 µM (active). The GI50 [38] was < 0.01 µM (active), the GI50 [39] was 0.316 µM (active) and the GI50 [40] was 0.957 µM (active). The GI50 [41] was 0.693 µM (active), the GI50 [42] was 1.64 µM (inactive) and the GI50 [43] was 1.83 µM (inactive). For the same molecule, the GI50 [44] was 1.06 µM (active), the GI50 [45] was 10.4 µM (inactive) and the GI50 [46] was < 0.01 µM (active). The GI50 [47] was 1.32 µM (inactive), the GI50 [49] was < 0.01 µM (active) and the GI50 [50] was 0.646 µM (active). For the same molecule, the GI50 [51] was 12.9 µM (inactive) and the GI50 [52] was 1.61 µM (inactive).
